# Reference: patent US20110124741A1, “RADIOSENSITIZER COMPOSITIONS COMPRISING SCHISANDRA CHINENSIS(TURCZ.)BAILL AND METHODS FOR USE” (ETEN BIOTECHNOLOGY LTD., CO., priority 2009, published 2011)
# Assays:
# HepG2 cells [1] = experiment: Western blot of apoptosis-related proteins (Bcl-2, p21, caspase 9 cleaved form, caspase 3 cleaved form); assay type: cell-based, human; settings: 12 μg/ml in combination with 8 Gy
# Method: HepG2 cells were seeded in 6-cm dish (2.5×10^5 cells/dish) for 24 hours of incubation. […] The cells were exposed at 8Gy of radiation (Linear accelerator, Philips SL-18), and incubated for another 48 hours. After collection, the cells were washed by PBS for three times, and then centrifuged at 360×g for 5 min. After removing the supernatant, 120 μl CelLytic-M (Sigma) and 1 μl Protease Inhibitor Cocktail (Sigma) were added into the pellet to suspend the cells and then the suspension was incubated at 4° C. for 30 min. The total protein was collected from the supernatant by centrifugation at 27210×g for 10 min.
# […] protein was loaded to run an SDS-PAGE. The gel was then transferred to PVDF and immersed into TTBS solution (2.42 g Tris base/8 g NaCl/0.1% Tween-20/per liter) containing 5% […] milk for blocking. The membrane was reacted with each primary antibody against p21, Bcl-2, caspase 9 (cleaved form), caspase 3 (cleaved form) and β-actin overnight at 4° C. After the reaction, the membrane was washed by TTBS solution three times, and then reacted with appropriate secondary antibody for another 30-min incubation. […] The bands were quantified by GE ImageMaster 2D Platinum Software. […]
# The expression level of apoptosis protein in HepG2 was also detected by western blot. […]
# HepG2 cells [2] = experiment: Annexin V-FITC/PI staining apoptosis assay by flow cytometry, with 8 Gy radiation; assay type: cell-based, human
# From the text: Annexin V is a 35-36 kDa Ca2+ dependent phospholipid-binding protein that has a high affinity for the membrane phospholipid phosphatidylserine (PS), and binds to cells with exposed PS. Since externalization of PS occurs in the earlier stages of apoptosis, Annexin V staining can identify apoptosis at an earlier stage than assays based on nuclear changes such as DNA fragmentation. A vital dye such as propidium iodide (PI) is typically used in conjunction with Annexin V to identify the viability of the cells. For example, cells that are considered viable are Annexin V and PI negative; cells that are in early apoptosis are Annexin V positive and PI negative; and cells that are in late apoptosis or already dead are both Annexin V and PI positive, wherein the membranes of dead and damaged cells are permeable to PI. The Annexin V staining assay was performed by Annexin V-FITC-Kit purchased from Beckman Coulter, Inc (U.S.A). The protocol was conducted according to the manufacturing manuscript.
# HepG2 cells were seeded in 6-cm dish (2.5×10^5 cells/dish) for 24 hours of incubation. Various concentration of ES800 (40 or 80 μg/ml) were added into the culture medium, and then incubated for another 24 hours, wherein 0.008% DMSO was added to the control group. The cells were exposed at 8 Gy of radiation (Linear accelerator, Philips SL-18), and incubated for another 48 hours. After collection, the cells were washed by pre-cold PBS and centrifuged at 500×g. The supernatant was removed and the cells were re-suspended with binding buffer. 1 μl Annexin V-FITC solution and 5 μl PI solution were added into the cell suspension and reacted away from light on ice for 15 min. Finally, 400 μl pre-cold binding buffer was added and the samples were analyzed by flow cytometer within 30 min. The percentages of Annexin V^+ and PI^+/− double staining cells were plotted in FIG. 2.
# HepG2 cells were seeded in 6-well plate (2.5×10^5 cells/well) for 24 hours of incubation. Various concentrations of ES800 (40 or 80 μg/ml) and Schisandrin B (12 or 24 μg/ml) were added into the culture medium, and then incubated for another 2 hours, wherein control group was added 0.008% DMSO. The cells were exposed at 8 Gy of radiation (Linear accelerator, Philips SL-18), and incubated for another 70 hours. After collection, the cells were washed by pre-cold PBS and centrifuged at 500×g. Following removing the supernatant, the cells were suspended with binding buffer. 1 μl Annexin V-FITC solution and 5 μl PI solution were added into the suspension and the mixture was reacted away from light on ice for 15 min. Finally, 400 μl pre-cold binding buffer was added and the samples were analyzed by flow cytometer within 30 min. The percentages of Annexin V^+ and PI^+/− double staining cells were plotted in FIG. 7.
smiles,measurement,setting,value
COc1cc2c(c(OC)c1OC)-c1c(cc3c(c1OC)OCO3)CC(C)C(C)C2 (centres unmarked) [Schisandrin B],"expression level of caspase 3 (cleaved form), compared with radiation alone (FIG. 8)",HepG2 cells [1],significantly higher
same,"apoptosis ratio of HepG2, compared with radiation of 8 Gy alone (FIG. 7)","HepG2 cells [2]; 24 μg/ml in combination with 8 Gy, 2 h pre-incubation, 70 h after radiation",significantly higher
same,"apoptosis ratio of HepG2, compared with the control group (FIG. 7)","HepG2 cells [2]; 12 or 24 μg/ml in combination with 8 Gy, 2 h pre-incubation, 70 h after radiation",significantly higher
same,effect on the apoptosis of cancer cells (FIG. 7),HepG2 cells [2]; 12 or 24 μg/ml without exposure of radiation,no effect
same,"effect in inhibition of the growth of cancer cells, compared with radiation therapy alone (FIG. 7)",HepG2 cells [2]; Schisandrin B in combination of radiation therapy,enhanced effect
